From US5935958A, “Muscarinic antagonists” (Schering Corporation, priority 1997, dated 1999)

Tests used:
[1] = biological target: T1, cloned human m2 muscarinic receptor (Homo sapiens, UniProt P08172); assay: Muscarinic binding, inhibition of 3H-QNB binding, m2; conditions: for m1/m2 (Ki ratio): Ki for m1 receptors divided by Ki for m2 receptors, higher ratio = greater m2 selectivity; for m4/m2 (Ki ratio): Ki for m4 divided by Ki for m2; for m1/m2 and m4/m2 ratios, in words: tests reported in Table 1
T1 construct: expressed in transfected cells; host or cells: CHO (stably transfected), membranes
T1 sequence (P08172 1-466): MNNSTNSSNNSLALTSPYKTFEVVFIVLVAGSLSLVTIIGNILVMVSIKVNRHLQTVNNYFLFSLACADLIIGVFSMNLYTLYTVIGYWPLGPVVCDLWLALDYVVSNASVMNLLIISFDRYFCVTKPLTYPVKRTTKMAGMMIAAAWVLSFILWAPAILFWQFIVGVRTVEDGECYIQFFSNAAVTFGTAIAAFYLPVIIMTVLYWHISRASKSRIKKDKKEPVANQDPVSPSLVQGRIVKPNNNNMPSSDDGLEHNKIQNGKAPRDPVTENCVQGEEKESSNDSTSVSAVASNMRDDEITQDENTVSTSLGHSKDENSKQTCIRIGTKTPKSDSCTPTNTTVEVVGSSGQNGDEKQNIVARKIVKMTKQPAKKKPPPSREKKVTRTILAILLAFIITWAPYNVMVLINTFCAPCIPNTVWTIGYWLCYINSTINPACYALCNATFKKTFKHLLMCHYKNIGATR

m2 muscarinic = conditions: Baumgold et al., Eur. J. Pharmacol., 251 (1994) 315-317; cited from earlier work
[2] = biological target: T2, cloned human m4 muscarinic receptor (Homo sapiens, UniProt P08173); assay: Muscarinic binding, inhibition of 3H-QNB binding, m4; conditions: CHO cell membranes, 25° C., 90 minutes
T2 construct: expressed in transfected cells; host or cells: CHO (stably transfected), membranes
T2 sequence (P08173 1-479): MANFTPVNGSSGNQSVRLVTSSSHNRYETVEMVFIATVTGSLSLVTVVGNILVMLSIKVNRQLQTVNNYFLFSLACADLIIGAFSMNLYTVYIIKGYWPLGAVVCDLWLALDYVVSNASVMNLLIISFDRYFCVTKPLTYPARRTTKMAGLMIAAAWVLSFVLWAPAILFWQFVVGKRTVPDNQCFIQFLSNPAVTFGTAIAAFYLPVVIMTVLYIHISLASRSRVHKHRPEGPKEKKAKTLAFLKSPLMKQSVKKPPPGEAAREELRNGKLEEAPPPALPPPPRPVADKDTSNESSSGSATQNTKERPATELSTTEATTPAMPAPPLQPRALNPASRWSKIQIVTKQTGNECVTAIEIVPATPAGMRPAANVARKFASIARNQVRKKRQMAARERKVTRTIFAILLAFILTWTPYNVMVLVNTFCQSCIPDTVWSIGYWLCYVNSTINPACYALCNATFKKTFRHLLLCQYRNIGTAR

[3] = biological target: T3, cloned human m1 muscarinic receptor (Homo sapiens, UniProt P11229); assay: Muscarinic binding, inhibition of 3H-QNB binding, m1; conditions: CHO cell membranes, 25° C., 90 minutes
T3 construct: expressed in transfected cells; host or cells: CHO (stably transfected), membranes
T3 sequence (P11229 1-460): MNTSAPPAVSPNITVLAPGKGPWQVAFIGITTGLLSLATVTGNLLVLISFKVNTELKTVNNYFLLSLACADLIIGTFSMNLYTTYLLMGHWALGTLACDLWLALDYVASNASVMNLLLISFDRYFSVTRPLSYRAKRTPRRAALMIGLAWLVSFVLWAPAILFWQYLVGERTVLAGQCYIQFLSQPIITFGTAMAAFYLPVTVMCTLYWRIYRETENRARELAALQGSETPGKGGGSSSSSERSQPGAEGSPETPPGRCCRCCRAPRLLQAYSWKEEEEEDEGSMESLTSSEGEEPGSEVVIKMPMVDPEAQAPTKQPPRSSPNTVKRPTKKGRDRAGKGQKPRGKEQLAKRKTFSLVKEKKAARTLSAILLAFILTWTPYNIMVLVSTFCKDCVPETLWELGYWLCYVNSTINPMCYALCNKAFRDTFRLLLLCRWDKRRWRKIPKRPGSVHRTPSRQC

c1cnc(Oc2ccc3c(c2)CCC3N2CCN(C3CCCCC3)CC2)nc1 (single isomer, unassigned) [Compound 10]
m1/m2 (Ki ratio) [1]: 13.2
m4/m2 (Ki ratio) [1]: 1.5
m1/m2 and m4/m2 ratios, in words [1]: useful values of the m1/m2 and m4/m2 ratios

c1cnc(Oc2ccc3c(c2)CCC3N2CCN(C3CCCCC3)CC2)nc1 (single isomer, unassigned) [Compound 11]
m1/m2 (Ki ratio) [1]: 3.6

COc1ccc(S(=O)(=O)c2ccc3c(c2)CCC3N2CCN(C3CCCCC3)C[C@H]2C)cc1 (single isomer, unassigned) [Compound 14]
m1/m2 (Ki ratio) [1]: 18.4
m4/m2 (Ki ratio) [1]: 2.6
m1/m2 and m4/m2 ratios, in words [1]: useful values of the m1/m2 and m4/m2 ratios

COc1ccc(S(=O)(=O)c2ccc3c(c2)CCC3N2CCN(C3CCCCC3)C[C@H]2C)cc1 (single isomer, unassigned) [Compound 15]
m1/m2 (Ki ratio) [1]: 11.2
m4/m2 (Ki ratio) [1]: 2.5
m1/m2 and m4/m2 ratios, in words [1]: useful values of the m1/m2 and m4/m2 ratios

C[C@H]1CC[C@@H]2N(C1)C[C@H]1[C@@H]3C[C@H]4[C@@H](CC(=O)[C@H]5C[C@@H](Cl)CC[C@@]54C)[C@@H]3CC[C@H]1[C@]2(C)O [3-α-chloroimperialine]
m2 muscarinic antagonist selectivity, in words (m2 muscarinic): highly selective m2 muscarinic antagonist

O=S(=O)(c1ccccc1)c1ccc2c(c1)CCC2N1CCN(CCO)CC1 (stereo not shown) [Compound 1]
m1/m2 (Ki ratio) [1]: 4.5
m4/m2 (Ki ratio) [1]: 1.3

O=[N+]([O-])c1ccc(Oc2ccc3c(c2)OCCC3N2CCN(C3CCCCC3)CC2)cc1 (stereo not shown) [Compound 2, 1-Cyclohexyl-4-[7-[(4-nitrophenyl)oxy]-chroman-4-yl]-piperazine]
m1/m2 (Ki ratio) [1]: 1.5

Nc1ccc(Oc2ccc3c(c2)OCCC3N2CCN(C3CCCCC3)CC2)cc1 (stereo not shown) [Compound 3]
m1/m2 (Ki ratio) [1]: 0.6
m4/m2 (Ki ratio) [1]: 0.3

CC(=O)Nc1ccc(Oc2ccc3c(c2)OCCC3N2CCN(C3CCCCC3)CC2)cc1 (stereo not shown) [Compound 4]
m1/m2 (Ki ratio) [1]: 1.0
m4/m2 (Ki ratio) [1]: > 0.9

c1cnc(Oc2ccc3c(c2)CCCC3N2CCN(C3CCCCC3)CC2)nc1 (stereo not shown) [Compound 5, 4-Cyclohexyl-1-piperazinyl-[6-[(2-pyrimidinyl)oxy]]-1,2,3,4-tetrahydro-naphthalene]
m1/m2 (Ki ratio) [1]: 7.5
m4/m2 (Ki ratio) [1]: 1.6

O=[N+]([O-])c1ccc(Oc2ccc3c(c2)CCCC3N2CCN(C3CCCCC3)CC2)cc1 (stereo not shown) [Compound 6]
m1/m2 (Ki ratio) [1]: 6.6
m4/m2 (Ki ratio) [1]: 0.8

Nc1ccc(Oc2ccc3c(c2)CCCC3N2CCN(C3CCCCC3)CC2)cc1 (stereo not shown) [Compound 7]
m1/m2 (Ki ratio) [1]: 4.0
m4/m2 (Ki ratio) [1]: 0.8

c1cnc(Oc2ccc3c(c2)CCCCC3N2CCN(C3CCCCC3)CC2)nc1 (stereo not shown) [Compound 8]
Ki ([1]; 3H-QNB binding, CHO cell membranes, 25° C., 90 minutes): 27 nM
m1/m2 (Ki ratio) [1]: 3.3
m4/m2 (Ki ratio) [1]: 0.9
Ki [2]: 23 nM
Ki [3]: 88 nM

c1cnc(Oc2ccc3c(c2)CCC3N2CCN(C3CCCCC3)CC2)nc1 (stereo not shown) [Compound 9]
m1/m2 (Ki ratio) [1]: 7.7
m1/m2 and m4/m2 ratios, in words [1]: useful values of the m1/m2 and m4/m2 ratios

c1cnc(Oc2ccc3c(c2)CC(CC2CCCCC2)C3N2CCN(C3CCCCC3)CC2)nc1 (stereo not shown) [Compound 12, 2-[[1-(4-Cyclohexyl-1-piperazinyl)-2-(cyclohexylmethyl)-2,3-dihydro-1H-inden-5-yl]oxy]pyrimidine]
m1/m2 (Ki ratio) [1]: 1.9

COc1ccc(S(=O)(=O)c2ccc3c(c2)CCC3N2CCC(N3CCCCC3)CC2)cc1 (stereo not shown) [Compound 13]
m1/m2 (Ki ratio) [1]: 4.0
m4/m2 (Ki ratio) [1]: 2.0
